According to paper PMC8568133, “Evaluation of bisphenylthiazoles as a promising class for combating multidrug-resistant fungal infections” (PLoS ONE, 2021):
Converted amounts (≈) assume the structure as drawn. Like-named read-outs stand apart in the source and are kept apart here.

What was measured:
Candida parapsilosis = test: Antifungal broth microdilution MIC (50% growth inhibition); format: cell-based; conditions: Lodderomyces parapsilosis, read-out: MIC
Experimental: (§1) Serial dilutions (from 128 μg/mL to 0.06 μg/mL) of the tested compounds and control drugs (fluconazole, itraconazole and amphotericin) (in triplicates), were screened against clinical isolates of Candida albicans, Candida auris, Candida glabrata, Candida parapsilosis, Candida tropicalis, Candida krusei, Cryptococcus neoformans, Cryptococcus gattii and Aspergillus fumigatus species using the broth microdilution method according to the Clinical and Laboratory Standards Institute guidelines. MICs were determined as the lowest concentration of the compounds that inhibited the fungal growth by 50% after incubation at 35 °C for 24 h (for Candida and Aspergillus), or 48 h (for Cryptococcus). The minimum fungicidal concentration (MFC) of these compounds was tested by plating 4 μL from wells with no growth onto YPD agar plates. The plates were incubated at 37 °C for 24 hours before recording the MFC, which was categorized as the lowest concentration that reduced fungal growth by 99.9% [45]. The experiment was repeated three independent times.

Candida albicans = test: Antifungal broth microdilution MIC (50% growth inhibition) and MFC; format: cell-based; conditions: Candida albicans; for MIC: read-out: MIC
Experimental: as §1

Candida tropicalis = test: as above; format: cell-based; conditions: Candida tropicalis, ATCC1369, C. tropicalis ATCC 1369; for MIC: read-out: MIC
Experimental: as §1

Candida krusei = test: as above; format: cell-based; conditions: Pichia kudriavzevii; for MIC: read-out: MIC
Experimental: as §1

Candida auris [1] = test: as above; format: cell-based
Experimental: as §1

Candida auris [2] = test: Checkerboard assay of compound 17 with standard antifungals; format: cell-based; conditions: for Interpretation of interaction: antifungal combined with compound 17; for MIC Combined, Antifungal: antifungal in combination with compound 17; for MIC: Candidozyma auris, checkerboard, agent alone
Experimental: To evaluate the interactions between bisphenylthiazoles and the standard antifungal agents (fluconazole, amphotericin B, 5-fluorocytosine and caspofungin) against 2 C. auris clinical isolates, a standard checkerboard assay was utilized as described in previous studies. The fractional inhibitory concentration index (FICI) was calculated for each interaction. Interactions where the FICI was ≤0.5 were categorized as synergistic (SYN). FICI values of >0.5–1.25 were categorized as additive (ADD). FICI values of >1.25–4 were categorized as indifferent, and FICI values of > 4 were categorized as antagonistic. The experiment was repeated three independent times.

[3] = system: Lactobacillus crispatus HM-370; test: Broth microdilution MIC against normal human microbiota; format: cell-based; conditions: HM370
Experimental: (§2) Broth microdilution was utilized to determine the activity of bisphenylthiazoles against the human gut microflora as described elsewhere. A bacterial solution equivalent to 0.5 McFarland standards was prepared and diluted in MRS broth to achieve a bacterial concentration of approximately 5 x 10^5 CFU/mL. Then, compounds/control antifungals (in triplicates), were added to the plates and serially diluted with media containing bacteria. The plates were incubated for 48 hours at 37 °C before recording the MIC values. The experiment was repeated three independent times.

[4] = system: Lactobacillus gasseri HM-400; test: as above; format: cell-based; conditions: HM400
Experimental: as §2

[5] = system: Lactobacillus casei ATCC-334; test: as above; format: cell-based; conditions: Lacticaseibacillus casei, ATCC334
Experimental: as §2

Cryptococcus neoformans = test: Antifungal broth microdilution MIC (50% growth inhibition, 48 h); format: cell-based; conditions: Cryptococcus neoformans, read-out: MIC
Experimental: as §1

Cryptococcus gattii = test: as above; format: cell-based; conditions: Cryptococcus gattii, read-out: MIC
Experimental: as §1

Candida strains = test: Minimum fungicidal concentration, summary over Candida strains; format: cell-based; conditions: strains of Table 6
Experimental: as §1

MRSA USA300 = system: MRSA USA300; parameters: method as in PMID 30247876; conditions: previous observations; cited from earlier work
[6] = parameters: method as in PMID 30247876; conditions: reactive metabolite formation, previous observations; cited from earlier work
[7] = ATCC22019, C. parapsilosis ATCC 22019
[8] = ATCC10231, C. albicans ATCC 10231
[9] = C. albicans NR-29448 (fluconazole-resistant)
[10] = ATCC34135, C. krusei ATCC 34135
[11] = Candidozyma auris, C. auris 381, read-out: MIC
[12] = Candidozyma auris, C. auris 382, read-out: MIC
[13] = Candidozyma auris, C. auris 387, read-out: MIC
[14] = Candidozyma auris, Candida auris 389, read-out: MFC
[15] = Candida auris 381 (azole-sensitive)
[16] = Candida auris 385 (azole-resistant)

SMILES	MIC (Candida parapsilosis; [7]) [µg/mL]	MIC (Candida parapsilosis; C. parapsilosis CAB 502638) [µg/mL]	MFC (Candida albicans; [8]) [µg/mL]	MIC (Candida albicans; [8]) [µg/mL]	MIC (Candida albicans; [9]) [µg/mL]	MIC (Candida albicans; C. albicans SS5314 (wild-type)) [µg/mL]	MFC (Candida albicans; C. albicans NR-29448) [µg/mL]	MFC (Candida tropicalis) [µg/mL]	MIC (Candida tropicalis) [µg/mL]	MIC (Candida krusei; [10]) [µg/mL]	MFC (Candida krusei; C. krusei CAB 396420) [µg/mL]	MIC (Candida krusei; C. krusei CAB 396420) [µg/mL]	MFC (Candida auris [1]; Candida auris 390) [µg/mL]	MIC (Candida auris [1]; [11]) [µg/mL]	MIC (Candida auris [1]; [12]) [µg/mL]	MIC (Candida auris [1]; [13]) [µg/mL]	MFC (Candida auris [1]; [14]) [µg/mL]	Interpretation of interaction (Candida auris [2]; [15])	MIC Combined, Antifungal (Candida auris [2]; [15]) [µg/mL]	Interpretation of interaction (Candida auris [2]; [16])	also measured
C[C@@H]1[C@H](O)[C@@H](C)/C=C/C=C/C=C/C=C/C=C/C=C/C=C/[C@H](O[C@@H]2O[C@H](C)[C@@H](O)[C@H](N)[C@@H]2O)C[C@@H]2O[C@](O)(C[C@@H](O)C[C@@H](O)[C@H](O)CC[C@@H](O)C[C@@H](O)CC(=O)O[C@H]1C)C[C@H](O)[C@H]2C(=O)O [Amphotericin B, reference compound]	0.5 (≈ 0.541 µM)	0.5 (≈ 0.541 µM)	1 (≈ 1.08 µM)	1 (≈ 1.08 µM)	1 (≈ 1.08 µM)	1 (≈ 1.08 µM)	2 (≈ 2.16 µM)	2 (≈ 2.16 µM)	1 (≈ 1.08 µM)	2 (≈ 2.16 µM)	2 (≈ 2.16 µM)	2 (≈ 2.16 µM)	2 (≈ 2.16 µM)	1 (≈ 1.08 µM)	1 (≈ 1.08 µM)	1 (≈ 1.08 µM)	2 (≈ 2.16 µM)	ADD (FICI values of >0.5–1.25 were categorized as additive (ADD))	1	ADD (FICI values of >0.5–1.25 were categorized as additive (ADD))	MIC (Candida auris [1]; Candidozyma auris, C. auris 383, read-out: MIC): 1 µg/mL (≈ 1.08 µM); MIC (Candida auris [1]; Candidozyma auris, C. auris 384, read-out: MIC): 1 µg/mL (≈ 1.08 µM); MIC (Candida auris [1]; Candidozyma auris, C. auris 385, read-out: MIC): 1 µg/mL (≈ 1.08 µM); MIC (Candida auris [1]; Candidozyma auris, C. auris 386, read-out: MIC): 2 µg/mL (≈ 2.16 µM); MIC (Candida auris [1]; Candidozyma auris, C. auris 388, read-out: MIC): 2 µg/mL (≈ 2.16 µM); MIC (Candida auris [1]; Candidozyma auris, C. auris 389, read-out: MIC): 2 µg/mL (≈ 2.16 µM); MIC (Candida auris [1]; Candidozyma auris, C. auris 390, read-out: MIC): 2 µg/mL (≈ 2.16 µM); MIC Combined, Antifungal (Candida auris [2]; [16]): 1 µg/mL; MIC (Candida auris [2]; [15]): 1 µg/mL; MIC (Candida auris [2]; [16]): 1 µg/mL; MIC ([3]; Lactobacillus crispatus HM-370, read-out: MIC): > 128 µg/mL; MIC ([4]; Lactobacillus gasseri HM-400, read-out: MIC): > 128 µg/mL; MIC ([5]; Lactobacillus casei ATCC-334, read-out: MIC): > 128 µg/mL; MIC (Cryptococcus neoformans; C. neoformans NR 41298): 1 µg/mL (≈ 1.08 µM); MIC (Cryptococcus neoformans; C. neoformans NR 41300): 1 µg/mL (≈ 1.08 µM); MIC (Cryptococcus neoformans; C. neoformans NR 48770): 0.5 µg/mL (≈ 0.541 µM); MIC (Cryptococcus gattii; C. gattii NR 43209): 1 µg/mL (≈ 1.08 µM); MIC (Cryptococcus gattii; C. gattii NR 43210): 0.5 µg/mL (≈ 0.541 µM); fungistatic or fungicidal activity (Candida strains): fungicidal
Cc1nc(-c2ccc(-c3ccccc3)cc2)sc1-c1nnc(NN)o1 [Compound 1]	–	–	–	–	–	–	–	–	–	–	–	–	–	–	–	–	–	–	–	–	MIC (MRSA) (MRSA USA300): 3 µg/mL (≈ 8.59 µM); GSH trap [6]: +ve
OC(Cn1cncn1)(Cn1cncn1)c1ccc(F)cc1F [Fluconazole, reference compound]	1 (≈ 3.27 µM)	0.5 (≈ 1.63 µM)	> 128	1 (≈ 3.27 µM)	> 128	1 (≈ 3.27 µM)	> 128	> 128	0.5 (≈ 1.63 µM)	16 (≈ 52.2 µM)	> 128	16 (≈ 52.2 µM)	>128	1 (≈ 3.27 µM)	8 (≈ 26.1 µM)	8 (≈ 26.1 µM)	> 128	ADD (FICI values of >0.5–1.25 were categorized as additive (ADD))	1	ADD (FICI values of >0.5–1.25 were categorized as additive (ADD))	MIC (Candida auris [1]; C. auris 383): >128 µg/mL; MIC (Candida auris [1]; C. auris 384): >128 µg/mL; MIC (Candida auris [1]; C. auris 385): >128 µg/mL; MIC (Candida auris [1]; C. auris 386): >128 µg/mL; MIC (Candida auris [1]; C. auris 389): >128 µg/mL; MIC (Candida auris [1]; C. auris 390): >128 µg/mL; MIC Combined, Antifungal (Candida auris [2]; [16]): 0.25 µg/mL; MIC (Candida auris [2]; [15]): 1 µg/mL; MIC (Candida auris [2]; [16]): > 128 µg/mL; MIC ([3]; Lactobacillus crispatus): > 128 µg/mL; MIC ([4]; Lactobacillus gasseri): > 128 µg/mL; MIC [5]: > 128 µg/mL; MIC (Cryptococcus neoformans; C. neoformans NR 41298): 2 µg/mL (≈ 6.53 µM); MIC (Cryptococcus neoformans; C. neoformans NR 41300): 1 µg/mL (≈ 3.27 µM); MIC (Cryptococcus neoformans; C. neoformans NR 48770): 2 µg/mL (≈ 6.53 µM); MIC (Cryptococcus gattii; C. gattii NR 43209): 4 µg/mL (≈ 13.1 µM); MIC (Cryptococcus gattii; C. gattii NR 43210): 4 µg/mL (≈ 13.1 µM); fungistatic or fungicidal activity (Candida strains): fungistatic
